According to US9901625B2, “Methods of regulating uptake and transcellular transport of leukocytes and therapeutics” (University of Maryland, College Park, priority 2011, dated 2018):

What was measured:
[1] = system: activated HUVECs; assay: Paracellular vs transcellular transmigration of WBCs over HUVECs on coverslips (podosome scoring); type: cell-based, human; conditions: for WBC TEM (WBCs projecting podosomes into/under HUVECs): 30 min, 37° C.; for arrested WBCs located away from the EC borders / diapedesis of WBCs located away from the EC borders: EC center; for paracellular TEM (transmigrating WBCs at EC border) / transcellular TEM (transmigrating WBCs at EC center): normalized to control; for paracellular TEM (transmigrating WBCs at EC border): <3 μm from cell border; for transcellular TEM (transmigrating WBCs at EC center): ≧3 μm from cell border
Procedure: The role of lipid domains and CAM-mediated endocytosis in paracellular versus transcellular diapedesis of leukocytes was examined. To distinguish between paracellular and transcellular TEM, WBCs were labeled with green-fluorescent calcein and diapedesis was evaluated by fluorescence and scanning electron microscopy as WBCs projecting podosomes (versus round-shaped WBCs) into or under ECs growing over glass coverslips (FIG. 3; FIG. 4).
Data are normalized to control values (horizontal dashed lines) and represent mean and standard errors of the mean (n≧30 WBCs). *, P≦0.05; **, P≦0.01; ***, P≦0.001 by Student's t test.

[2] = system: activated HUVECs; assay: Recruitment of molecules at sites of endothelial ICAM-1 engagement by anti-ICAM beads; type: cell-based, human; conditions: 15 min
[3] = system: HUVECs; assay: Endocytosis of anti-ICAM beads by ECs in culture (HUVECs); type: cell-based, human; conditions: values normalized to controls
[4] = system: activated HUVEC monolayers; assay: Transport of WBCs across activated HUVEC monolayers on a porous membrane (SDF1-α chemoattractant); type: cell-based, human; conditions: for WBC transmigration across HUVEC monolayer: 30 min, 37° C., WBCs counted in bottom chamber; for WBC capacity to transmigrate across the porous filter in the absence of an endothelial monolayer: no HUVEC monolayer
Procedure: A confluent EC monolayer from human umbilical vein ECs was grown on a porous membrane through which peripheral lymphocytes isolated from healthy individuals (wild-type WBCs) can transmigrate, driven by the presence of the chemoattractant SDF1-α in the chamber underneath the ECs. Under control conditions, 77.7±2.3% wild-type WBCs underwent transmigration by 30 min, which was abrogated when K562 cells lacking the ICAM-1- and VCAM-1-binding integrins LFA-1 and VLA-4, respectively, were used (FIG. 1A). Transport of either peripheral blood lymphocytes (control) or K562 cells lacking ICAM-1- and VCAM-1-binding integrins of white blood cells (WBCs) across activated HUVEC monolayers assessed at 37° C. by counting WBCs in the bottom chamber underneath HUVEC, 30 min after adding WBCs to the upper chamber above HUVECs (black bars). Transmigration was alternatively performed prior (control) or after blocking integrins LFA-1 or VLA-4 on peripheral blood lymphocytes using monoclonal antibodies. The horizontal dashed line in FIG. 1A represents WBC transmigration at 4° C.
Data are normalized to control values, and represent mean and standard errors of the mean (n≧3 experiments). *, P≦0.001 by Student's t test.
Further, transport of activated peripheral blood lymphocytes (WBCs) across activated HUVEC monolayers was assessed at 37° C. by counting WBCs in the bottom chamber underneath HUVEC 30 min after adding WBCs to the upper chamber above HUVECs (FIG. 2A black bars). Absence of HUVEC monolayer was a control (FIG. 2A white bars). Transmigration was performed in the absence (control) or presence of filipin, methyl-β-cyclodextrin (Cdx) or amiloride. In accord with previous works (Tilghman R W, et al. (2002) FEBS Lett 525:83-87; Barreiro O, et al. (2005) Blood 105:2852-2861; Millan et al., 2006), WBC transmigration was inhibited by methyl-β-cyclodextrin (Cdx; 48.1±4.8% of control; FIG. 2A), an agent that depletes cholesterol from cells. […] Instead, amiloride, which affects Na^+/H^+ exchangers (Kleyman T R, et al. (1988) J Membr Biol 105:1-21) and inhibits CAM-mediated endocytosis (Muro S, et al. (2003) J Cell Sci 11 6:1599-1609), reduced WBC transmigration even to a greater extent than Cdx (38.6±3.7% of control; FIG. 2A).

[5] = system: activated HUVECs; assay: Binding of activated WBCs to activated HUVECs (fluorescence microscopy); type: cell-based, human; conditions: 30 min, 37° C.
Text: The horizontal dashed line represents binding of negative control K562 WBCs, which lack ICAM-I- and VCAM-1-binding integrins. Data are normalized to control values, and represent mean and standard errors of the mean (n≧3 experiments). *, P≦0.001 by Student's t test.

[6] = system: ICAM-1; conditions: cited from earlier work

CN(C)CCCN1c2ccccc2CCc2ccccc21 [imipramine]
WBC TEM (WBCs projecting podosomes into/under HUVECs) [1]: 46.6±7.6 % of control
level of transcellular TEM ([1]; FIG. 14C): decreased the level of transcellular TEM
paracellular TEM ([1]; FIG. 14C): paracellular TEM increased
ceramide enrichment in areas of bead engulfment [2]: 23.6 % decrease
Internalization (%) of anti-ICAM beads [3]: 61.9 ± 6.7 %

methyl-β-cyclodextrin [Cdx]
WBC transmigration across HUVEC monolayer [4]: 48.1±4.8 % of control
WBC capacity to transmigrate across the porous filter in the absence of an endothelial monolayer [4]: Neither Cdx nor amiloride impaired
affected WBC binding to ECs [5]: Neither
WBC TEM (WBCs projecting podosomes into/under HUVECs) [1]: 80.5±6.8 % of control
arrested WBCs located away from the EC borders [1]: 170.5±36.2 % of control
diapedesis of WBCs located away from the EC borders [1]: 71.5±14.6 % of control
paracellular TEM (transmigrating WBCs at EC border) [1]: 124.9±17.1%
transcellular TEM (transmigrating WBCs at EC center) [1]: 78.3±14.9%
ICAM-1 enrichment in areas of bead engulfment [2]: 43 % decrease

CCCCC[C@@H](O)[C@H]1C(=O)O[C@H](C)[C@@H](O)/C=C/C=C/C=C/C=C/C=C(\C)[C@@H](O)C[C@H](O)C[C@H](O)C[C@H](O)C[C@H](O)C[C@H](O)C[C@@H]1O [filipin]
WBC transmigration across HUVEC monolayer [4]: 88.0±7.7 % of control
WBC TEM (WBCs projecting podosomes into/under HUVECs) [1]: 108.7±8.6 % of control
Internalization (%) of anti-ICAM beads [3]: 107.2 ± 1.5%
Formation of endocytic vesicles upon ICAM-1 engagement by anti-ICAM particles [6]: not affected

N=C(N)NC(=O)c1nc(Cl)c(N)nc1N [amiloride]
WBC transmigration across HUVEC monolayer [4]: 38.6±3.7 % of control
WBC capacity to transmigrate across the porous filter in the absence of an endothelial monolayer [4]: Neither Cdx nor amiloride impaired
affected WBC binding to ECs [5]: Neither
WBC TEM (WBCs projecting podosomes into/under HUVECs) [1]: 63.8±7.3 % of control
arrested WBCs located away from the EC borders [1]: 209.1±68.1 % of control
diapedesis of WBCs located away from the EC borders [1]: 56.0±27.5 % of control
paracellular TEM (transmigrating WBCs at EC border) [1]: 139.6±34.1%
transcellular TEM (transmigrating WBCs at EC center) [1]: 65.5±29.7%
ICAM-1 enrichment in areas of bead engulfment [2]: 22.9 % decrease
Internalization (%) of anti-ICAM beads [3]: 13.8 ± 3.3 %

CCN(c1nc(N)c(C(=O)N=C(N)N)nc1Cl)C(C)C [EIPA, 5′-(N-ethyl-N-isopropyl)amiloride]
ceramide enrichment in areas of bead engulfment [2]: 35.6 % decrease
